# Results reported in ChEMBL document CHEMBL5096189, “The Mur Enzymes Chink in the Armour of Mycobacterium tuberculosis cell wall” (Eur J Med Chem, 2021).
# “And” between values parts separate entries of the source, which are not always exact repeats. Equal entries are not always repeated.
# Tests used:
# [1] = Inhibition of Mycobacterium tuberculosis MurE expressed in Escherichia coli BL21(DE3) cells using UDP-MurNAc-dipeptide as substrate incubated for 30 mins by HPLC analysis
# [2] = Inhibition of recombinant Mycobacterium tuberculosis MurE expressed in Escherichia coli BL21(DE3) cells using UDP-MurNAc-dipeptide as substrate incubated for 30 mins by phosphate release based colorimetric assay; format: cell-based
# [3] = Selectivity index, ratio of IC50 for cytotoxicity against mouse RAW264.7 cells to MIC for antitubercular activity against Mycobacterium tuberculosis H37Rv ATCC 27294; format: toxicity, cell-based; conditions: for selectivity ratio: RAW264.7 cells, read-out: Selectivity Index
# [4] = tested on: RAW264.7; assay: Cytotoxicity against mouse RAW264.7 cells assessed as cell growth inhibition incubated for 48 hrs by resazurin staining based fluorometric analysis; format: functional; conditions: RAW264.7, 48 h
# [5] = tested on: Mycobacterium tuberculosis; assay: Antitubercular activity against Mycobacterium tuberculosis H37Rv ATCC 27294 assessed as bacterial growth inhibition; format: functional
# [6] = Inhibition of recombinant Mycobacterium tuberculosis MurE expressed in Pseudomonas putida KT2442 using UDPMurNAc-L-Ala-D-Glu as substrate incubated for 30 mins by HPLC analysis
# [7] = tested on: Mycobacterium tuberculosis; assay: Antimycobacterial activity against Mycobacterium tuberculosis H37Rv ATCC 27294 assessed as inhibition of bacterial growth incubated for 2 weeks by spot culture growth inhibition assay; format: functional; conditions: H37Rv ATCC 27294, 336 h
# [8] = (§1) Inhibition of Mycobacterium tuberculosis MBP tagged MurF expressed in Escherichia coli Rosetta-gami (DE3) cells using UDP-GlcNAc as initial substrate pretreated with compound for 15 mins followed by substrate addition measured after 30 mins in presence of ATP by phosphate release based assay relative to control
# [9] = tested on: Mycobacterium tuberculosis; assay: Antitubercular activity against Mycobacterium tuberculosis H37Rv ATCC 27294 assessed as bacterial growth inhibition incubated for 6 days by MTT assay; format: functional; conditions: H37Rv ATCC 27294, 144 h, time 6 day
# [10] = (§2) Inhibition of N-terminal His-tagged Mycobacterium tuberculosis MurE expressed in Escherichia coli BL21 (DE3) cells using UDP-GlcNAc as initial substrate pretreated with compound for 15 mins followed by substrate addition measured after 30 mins in presence of ATP by phosphate release based assay relative to control
# [11] = tested on: Mycobacterium tuberculosis; assay: Inhibition of Mycobacterium tuberculosis MurF at 100 uM relative to control
# [12] = tested on: Mycobacterium tuberculosis; assay: Inhibition of Mycobacterium tuberculosis MurE at 100 uM relative to control
# [13] = tested on: Mycobacterium tuberculosis; assay: Inhibition of Mycobacterium tuberculosis MurD at 100 uM relative to control
# [14] = tested on: Mycobacterium tuberculosis; assay: Inhibition of Mycobacterium tuberculosis MurC at 100 uM relative to control
# [15] = tested on: RAW264.7; assay: Cytotoxicity against mouse RAW264.7 cells assessed as cell growth inhibition; format: functional, cell-based
# [16] = Inhibition of Mycobacterium tuberculosis MurE expressed in Escherichia coli BL21(DE3) cells by phosphate release based colorimetric assay
# [17] = tested on: Mycobacterium tuberculosis; assay: as §2, with “MurB” for “MurE”; conditions: time 45.0 min
# [18] = tested on: Mycobacterium tuberculosis; assay: as §2, with “MurA” for “MurE”; conditions: time 45.0 min
# [19] = tested on: Mycobacterium tuberculosis; assay: as §1, with “MurD” for “MurF”; conditions: time 45.0 min
# [20] = tested on: Mycobacterium tuberculosis; assay: as §2, with “MurC” for “MurE”; conditions: time 45.0 min
# [21] = Inhibition of Mycobacterium tuberculosis MurE using UDPMurNAc-L-Ala-D-Glu as substrate incubated for 30 mins by phosphate release based colorimetric assay
# [22] = tested on: Mycobacterium tuberculosis; assay: Antitubercular activity against Mycobacterium tuberculosis H37Rv ATCC 9360 assessed as bacterial growth inhibition incubated for 2 weeks by spot culture growth inhibition assay; format: functional; conditions: H37Rv ATCC 9360, 336 h
compound,measurement,setting,value
CCCCCCCCCC/C=C/C1CC(=O)c2ccccc2N1C (configuration not stated),IC50,[1],187 µM
same,IC50,[2],72 µM
same,selectivity ratio,[3],1
same,IC50,[4],24 µg/mL
same,MIC,[5],30.7 µM
COc1ccc(Br)c2c1C(c1cccc3c1OCO3)NCC2 (configuration not stated),IC50,[6],165 µM
same,MIC,[7],106 µM
Oc1ccc(Br)c2c1C(c1cccc3c1OCO3)NCC2 (configuration not stated),IC50,[6],< 111 µM
COc1c(O)c2c3c(c1OC)CCN[C@H]3Cc1cc3c(cc1-2)OCO3.Cl,IC50,[2],57 µM
same,IC50,[8],45.4 µM
same,Selectivity Index,[3],12
same,MIC,[9],4 µg/mL
same,IC50,[10],61.6 µM
same,IC50,[4],47 µg/mL
NNC(=O)c1ccncc1 [ISONIAZID],IC50,[6],> 1000 µM
same,IC50,[2],> 1000 µM
COc1c(O)c2c3c(c1OC)CCN[C@H]3Cc1cc3c(cc1-2)OCO3 [listing 1 of 2 here],IC50,[2],67 µM and < 100 µM
same,Selectivity Index,[3],0.97
same,MIC,[9],64 µg/mL
same,IC50,[4],62 µg/mL
CCCCCCCC/C=C/C1CC(=O)c2ccccc2N1C (configuration not stated),IC50,[1],207 µM
same,IC50,[2],70 µM
same,selectivity ratio,[3],1
same,IC50,[4],24 µg/mL
same,MIC,[5],84 µM
COC(=O)N1CCc2c(OC)c(OC)c(O)c3c2[C@@H]1Cc1cc2c(cc1-3)OCO2,IC50,[2],75 µM and < 100 µM
same,selectivity ratio,[3],0.52
same,MIC,[9],128 µg/mL
same,IC50,[4],67 µg/mL
CCCCCCCCCCC/C=C/C1CC(=O)c2ccccc2N1C (configuration not stated),IC50,[1],140 µM
same,IC50,[2],52 µM
same,selectivity ratio,[3],1
same,IC50,[4],24 µg/mL
same,MIC,[5],58.9 µM
CC(=O)N[C@H]1[C@H](OCc2cn(C[C@@H]3O[C@H](n4ccc(=O)[nH]c4=O)[C@@H](O)[C@H]3O)nn2)O[C@H](Cn2cc(CO[C@@H]3O[C@H](CO)[C@@H](O)[C@H](O)[C@H]3NC(C)=O)nn2)[C@@H](O)[C@@H]1O,inhibition,[11],48.9%
same,inhibition,[12],12.5%
same,inhibition,[13],5.2%
same,inhibition,[14],1%
CC(=O)N[C@H]1[C@H](OCc2cnnn2C[C@H]2O[C@@H](n3ccc(=O)[nH]c3=O)[C@H](O)[C@@H]2O)O[C@H](Cn2cc(C(N)=O)nn2)[C@@H](O)[C@@H]1O,inhibition,[11],41.8%
same,inhibition,[12],6.1%
same,inhibition,[13],23%
same,inhibition,[14],12.1%
Oc1ccc(Br)c2c1C(Cc1cccc3c1OCO3)NCC2 (configuration not stated),IC50,[6],< 111 µM
COc1c(O)c2c3c(c1OC)CCNC3Cc1cc3c(cc1-2)OCO3 (configuration not stated),IC50,[6],820 µM
same,IC50,[15],352 µM
same,MIC,[7],84 µM
CCCCCCCC/C=C\CCCCC1CC(=O)c2ccccc2N1C (configuration not stated),IC50,[1],95 µM
same,IC50,[2],36 µM
same,selectivity ratio,[3],1
same,IC50,[4],24 µg/mL
same,MIC,[5],28.3 µM
CCCCCCCCCC#CCC1CC(=O)c2ccccc2N1CCCC (configuration not stated),IC50,[16],235 µM
CCCCCCCCC/C=C\CCCC1CC(=O)c2ccccc2N1C (configuration not stated),inhibition,[17],> 100%
same,inhibition,[18],> 100%
same,inhibition,[19],85%
same,IC50,[1],159 µM
same,IC50,[2],52 µM
same,inhibition,[20],73%
same,IC50,[8],25.8 µM
same,selectivity ratio,[3],1
same,IC50,[10],17 µM
same,IC50,[4],24 µg/mL
same,MIC,[5],70.7 µM
Oc1ccc(I)c2c1C(Cc1cccc3c1OCO3)NCC2 (configuration not stated),IC50,[6],< 111 µM
same,MIC,[7],71 µM
C=CC(C)(C)C1C(=O)CC(c2ccccc2)OC1OC (configuration not stated),IC50,[21],320 µM
same,MIC,[22],75 µg/mL
COc1c(O)c2c3c(c1OC)CCN[C@H]3Cc1cc3c(cc1-2)OCO3 [listing 2 of 2 here],inhibition,[17],> 100%
same,inhibition,[18],75%
same,inhibition,[19],88%
same,inhibition,[20],66%
CCCCCCCCCCCC#CCC1CC(=O)c2ccccc2N1CCCC (configuration not stated),IC50,[16],200 µM
